As a reminder, the MIC is the least concentration at which growth counts as inhibited. A word on the IC50: it is the concentration at which inhibition is half-maximal. For orientation: IC90 means the concentration at which the effect reaches the 90% level.

This note sets out measurements from ChEMBL document CHEMBL3797042, “Hybrid Pyrrole-Imidazole Alkaloids from the Sponge Agelas sceptrum” (J Nat Prod, 2016).

For data set [1], the system named is Staphylococcus aureus. The data set can be described thus: Antimicrobial activity against methicillin-resistant Staphylococcus aureus after 24 hrs by microdilution method. It is filed as functional, organism-based.
Data set [2] deals with Staphylococcus aureus. Nature of the data set: Antimicrobial activity against methicillin-sensitive Staphylococcus aureus after 24 hrs by microdilution method. It is filed as functional, organism-based. In general terms: Dilution methods test growth across graded concentrations, often in twofold steps.
Data set [3] has as its system Micrococcus luteus. The data set can be described thus: Antimicrobial activity against Micrococcus luteus after 24 hrs by microdilution method. It is filed as functional.
Data set [4] relates to Pseudomonas aeruginosa. The data set can be described thus: Antimicrobial activity against Pseudomonas aeruginosa after 24 hrs by microdilution method. Format: functional, organism-based.
For data set [5], the system named is Klebsiella pneumoniae. Nature of the data set: Antimicrobial activity against Klebsiella pneumoniae after 24 hrs by microdilution method. Format: functional.
Data set [6] deals with Candida albicans. Nature of the data set: Antimicrobial activity against Candida albicans after 24 hrs by microdilution method. Format: functional, organism-based.
For data set [7], the system named is L929. The data set can be described thus: (§1) Cytotoxicity against mouse L929 cells after 5 days by WST-1 assay. It is filed as cell-based. The following applies: for IC90: mouse, l929, 120 h. On the technique in general: Tetrazolium assays rely on reduction of a dye to a coloured formazan, in cell work by metabolically active cells.
The nature of data set [8]: (§2) Cytotoxicity against human KB3-1 cells after 5 days by WST-1 assay. Format: functional, cell-based, KB 3-1.
Data set [9] deals with KB 3-1. The data set is described as §2. Format: functional, cell-based.
The test system of data set [10] is MCF7. The data set can be described thus: Cytotoxicity against human MCF7 cells after 5 days by WST-1 assay. Format: functional, cell-based.
A short description of data set [11]: Cytotoxicity against human FS4-LTM cells after 24 hrs by WST-1 assay. It is filed as cell-based. The following applies: for IC90: human, 24 h.
The nature of data set [12]: as §1. Format: cell-based. The following applies: mouse, L929 cells.
The mark [13] stands for this setting: Homo sapiens, KB 3-1, 120 h, read-out: IC50.

≈ marks a conversion by molar mass, not a printed value. Calls of active or inactive are those of the source. No cut-off for these calls is given here.

Consider `C[n+]1cnc2[nH]c(=O)n(-c3nc(N)[nH]c3[C@@H]3[C@@H](CNC(=O)c4cc(Br)c[nH]4)[C@H](CNC(=O)c4cc(Br)c[nH]4)[C@H]3c3cnc(N)[nH]3)c2c1N`, for which the MIC entry in data set [1], in data set [2], in [3], in [4], in data set [5] and in [6] was “inactive” each time. Further, the half-inhibitory concentration (IC50) entry in [7] (l929), in data set [8] (kb 3-1), in data set [10] (mcf7) and in [11] was “Not Active” throughout. For the same compound, the IC90 entry in data set [7] and in data set [11] was “Not Active” in each case. The IC90 entry in data set [9] and in [10] was “inactive” each time.

In the case of `Nc1ncc(/C=C/CNC(=O)c2cc(Br)c(Br)[nH]2)[nH]1` [OROIDIN], the MIC entry in [1], in [2], in data set [3], in data set [4], in [5] and in data set [6] was “inactive” in each case. Also, the IC50 entry in data set [7] (l929), in data set [8] (kb 3-1), in data set [10] (mcf7) and in data set [11] was “Not Active” each time. Moreover, the 90% effect concentration (IC90) entry in data set [7] and in data set [11] was “Not Active” in each case. Further, the IC90 entry in data set [9] and in [10] was “inactive” throughout.

Turning to `Nc1ncc([C@@H]2[C@@H](CNC(=O)c3ccc[nH]3)[C@H](CNC(=O)c3cc(Br)c[nH]3)[C@H]2c2cnc(N)[nH]2)[nH]1`, the MIC entry in data set [1], in data set [2], in data set [3], in data set [4], in [5] and in data set [6] was “inactive” in each case. The IC50 entry in [7] (l929) is “Not Active”; in data set [8] (setting [13]), 29 µM; in data set [10] (mcf7) it was “Not Active”; in data set [11], “Not Active”. Moreover, the concentration for an effect of 90% (IC90) result was “Not Active” in data set [7]; 92 µM in [8] (Homo sapiens, KB 3-1, 120 h); “Not Active” in data set [11]. The IC90 result in data set [10] was “inactive”.

`NCCC(=O)c1cccc2c1N[C@H](CNC(=O)c1cc(Br)c(Br)[nH]1)[C@@H](c1cnc(N)[nH]1)O2`: the MIC result in [1], in [2], in data set [3], in data set [4], in data set [5] and in [6] was “inactive” each time. In addition, the IC50 entry in data set [7] (l929) was “Not Active”; in data set [8] (setting [13]), 44 µM; in data set [10] (mcf7), “Not Active”; in [11], “Not Active”. Also, the IC90 result in data set [7] is “Not Active”; in data set [8] (Homo sapiens, KB 3-1, 120 h), at least 130 µM; in [11] it was “Not Active”. Further, the IC90 entry in data set [10] is “inactive”.

Regarding `Nc1ncc([C@@H]2[C@@H](CNC(=O)c3cc(Br)c[nH]3)[C@H](CNC(=O)c3cc(Br)c[nH]3)[C@H]2c2cnc(N)[nH]2)[nH]1`, the MIC result in data set [1], in data set [2], in data set [4] and in data set [6] was “inactive” each time. Also, the minimal inhibitory concentration (MIC) in data set [3] and in data set [5] was 32 µM (≈ 19.8 µg/mL) each time. In addition, the IC90 at 120 h in data set [12] was at least 238 µM. Further, the 50% inhibitory concentration (IC50) in data set [7] (Mus musculus, L929, 120 h, read-out: IC50) was 193 µM; in data set [8] (setting [13]), 80 µM; in [10] (Homo sapiens, MCF7, 120 h, read-out: IC50), 238 µM; in [11], “Not Active”. For the same compound, the IC90 in data set [8] (Homo sapiens, KB 3-1, 120 h) is 2390 µM; in [10] (Homo sapiens, MCF7, 120 h), at least 238 µM; in data set [11], “Not Active”.
